Assay results reported in US20230242511A1, “FUSED PYRAZOLE AND IMIDAZOLE BASED COMPOUNDS AND USE THEREOF AS GLI1 INHIBITORS” (GLIXOGEN THERAPEUTICS LTD., priority 2020, published 2023).
Where two headings read alike, the source gives them in different places. Values belong to the molecule of their own block, whether it stands above or below them.

Experiments:
EAE mouse model [1] = assay: Efficacy EAE model, PLP139-151/CFA in SJL/L mice; assay type: in vivo; settings: daily 10 mg/Kg or 50 mg/Kg, until Day 57, vs vehicle
Description: (§1) N=12 for all groups except for dexamethasone which had n=5 (FIG. 1B).
Eight-weeks old female SJL/L mice were immunized on Day 1 with an emulsion of PLP139-151/CFA and injected with pertussis toxin to induce disease. At the start of clinical signs (Days 9-10), the animals were administered with compound 6 (Glx-077) at a daily dose of 10 mg/Kg or 50 mg/Kg, or with a vehicle (15% HP-β-CD in water) until completion of trial (Day 57). A graph, summarizing the results of this experiment is represented in FIG. 1A.

EAE mouse model [2] = assay: Efficacy EAE model, MOG35-55/CFA in C57B16 mice; assay type: in vivo; settings: daily 10 mg/Kg, until Day 28, vs vehicle
Description: as §1
Thirteen-weeks old female C57B16 mice were immunized on Day 1 with an emulsion of MOG35-55/CFA and injected with pertussis toxin to induce disease. At the start of clinical signs (Days 9-10), the animals were daily administered with Glx-077, Glx-088P3, clemastine fumarate (at 10 mg/Kg) or vehicle (15% HP-β-CD in water) until completion of experiment (Day 28). Mice administered with dexamethasone were used as a positive control group. Clinical score of the mice was measured daily. A graph, summarizing the results of this experiment is represented in FIG. 1B.

Gli1 = assay: Gli1-Luciferase Reporter Assay (Shh Light 2 cells); assay type: cell-based, mouse
Description: Cell line: Shh Light 2 cell line which is based on NIH3T3 mouse fibroblast cell line genetically modified to stably express the Firefly Luciferase reporter gene under the transcription control of Gli 1 binding sequence and the Renila Luciferase gene under a control pRL-SV40 promoter was licensed from Johns Hopkins University (JHU).
Cell culture: Cells are cultured in Complete Medium [formulated as DMEM, 10% FBS, 1% sodium pyruvate, 1% L-glutamine, 0.4 mg/ml G418, 0.15 mg/ml Zeocin] until 80% confluence is achieved. Once sufficient confluency is achieved, cells are detached from the 10 cm culture dish using trypsin-EDTA, washed in Growth Medium [formulated as DMEM, 10% FBS, 1% sodium pyruvate, 1% L-glutamine, 1% PenStrep] and resuspended in fresh Growth Medium at a concentration of 4.3*10^5 cells/ml. To a white 96-well plate […] of cells suspension is transferred and incubated in a humified incubator at 37° C. with 5% CO2 overnight until the cells reach confluency the following day.
On the following day, a 13 point 1:1 dilution of a stock 20 mM Gli 1 inhibitor compound in DMSO is performed and […] of each diluted Gli1 inhibitor compound is diluted in […] Assay Medium [formulated as DMEM, 2% FBS, 1% sodium pyruvate, 1% L-glutamine, 1% PenStrep]. The Growth Medium is removed from the cell-plated 96-well plate and […] of the diluted Gli1 inhibitor is transferred to each well and plates are incubated at 37° C. and 5% CO2 for 30 minutes.
Then, the plates are removed from incubator and Purmorphamine (a Smoothened agonist to induce Hedgehog signaling and Gli1 activation in cells) at a final concentration of […] is added to each well and the plates are reinserted to the incubator for 24 hours incubation. The following day, Firefly and Renila Luciferase levels are measured using the Dual-Glo Luciferase system and the ratio between the Firefly and Renila is calculated for normalization of signal. The ratio of the signal in the treated cells is plotted vs. compound concentration and the IC50 value of each compound is calculated by generating a non-linear regression curve using the 4PL function in GraphPad Prism 8 software.
The primary screening assay is based on a NIH3T3 mouse fibroblast cell line genetically modified to stably express the Firefly Luciferase reporter gene under the transcription control of Gli1 binding sequence and the Renila Luciferase gene under a control pRL-SV40 promoter. This assay allows the determination of a compound's IC50 value in inhibiting Gli1 activity.

Pharmacokinetic Study = assay type: in vivo; settings: for Cmax: in ng/mL (unit assumed)
Description: Compounds were formulated in 15% HP-b-CD in water (IV formulation was at pH=5.0 and PO was at pH=3.0). Blood was obtained from facial vein pre-dosing and at 0.083, 0.25, 0.5, 1, 2, 4, 8, 24 hours post dosing for a total of 9 time-points, semi-serial bleeding. For PO dosing, another group of animals (n=3) were terminated at 2 hours post dosing and brains were extracted to analyze brain exposure and calculate brain/plasma ratio. Lower limit of quantification (LLOQ) for brain and plasma samples was 1 ng/ml.

[3] = Mus musculus, Shh Light2, in-vitro, read-out: concentration inhibiting 50% of Gli1 activity
[4] = Shh Light 2 cell line, Purmorphamine-induced, 24 hours, read-out: Luciferase cell based IC50
[5] = Mus musculus, Shh Light2, Shh Light 2 cell line, Purmorphamine-induced, 24 hours, read-out: Luciferase cell based IC50

Compound: Cn1c(-c2ccccc2Cl)nc2c1CN(Cc1nc3cccnc3o1)CC2 [Compound 6]
clinical outcome (FIG. 1A) (EAE mouse model [1]): improvements in clinical outcome | clinical outcome / clinical score (FIG. 1B) (EAE mouse model [2]): improvements in clinical outcome

Compound: Cc1nc(CN2CCc3nc(-c4ccccc4Cl)n(C)c3C2)nc2ccccc12 [Compound 12]
IC50 (Gli1; Mus musculus, Shh Light2, benzyl series compounds, read-out: in-vitro efficacy IC50): 5.6 nM

Compound: COc1cccc2c1CN(C1CCc3nn(-c4ccccc4Cl)c(C)c3C1)C2 (centres unmarked) [Glx-088P3]
IC50 (Gli1; [4]): 0.18 nM | AUCINF-plasma (Pharmacokinetic Study; IV, 2 mg/Kg): 517 ng·h/mL | T½ (Pharmacokinetic Study; IV, 2 mg/Kg): 1.53 h | % F (Pharmacokinetic Study; PO, 10 mg/Kg): 38% | AUCINF-plasma (Pharmacokinetic Study; PO, 10 mg/Kg): 517 ng·h/mL | T½ (Pharmacokinetic Study; PO, 10 mg/Kg): 1.5 h | Brain levels 2 h post PO administration (Pharmacokinetic Study; PO, 10 mg/Kg): 123 ng/g | Brain/plasma ratio (2 h) (Pharmacokinetic Study; PO, 10 mg/Kg): 208% | Cmax (Pharmacokinetic Study; PO, 10 mg/Kg): 268 | % F (Pharmacokinetic Study; PO, 30 mg/Kg): 65.6% | AUCINF-plasma (Pharmacokinetic Study; PO, 30 mg/Kg): 2674 ng·h/mL | T½ (Pharmacokinetic Study; PO, 30 mg/Kg): 1.69 h | Brain levels 2 h post PO administration (Pharmacokinetic Study; PO, 30 mg/Kg): 1104 ng/g | Brain/plasma ratio (2 h) (Pharmacokinetic Study; PO, 30 mg/Kg): 236% | Cmax (Pharmacokinetic Study; PO, 30 mg/Kg): 1199 | clinical outcome / clinical score (FIG. 1B) (EAE mouse model [2]): improvements in clinical outcome

Compound: Cc1c2c(nn1-c1ccccc1Cl)CCC(N1Cc3c(F)ccc(C#N)c3C1)C2 (centres unmarked) [Glx-308]
IC50 (Gli1; [5]): 55 nM

Compound: Cc1c2c(nn1-c1ccccc1Cl)CCC(N1Cc3cccc(C#N)c3C1)C2 (centres unmarked) [Glx-322]
IC50 (Gli1; [5]): 12 nM

Compound: COc1ccc(C#N)c2c1CN(C1CCc3nn(-c4ccccc4Cl)c(C)c3C1)C2 (centres unmarked) [Glx-341]
IC50 (Gli1; [5]): 16.7 nM

Compound: COc1cccc2c1CN([C@H]1CCc3nn(-c4ccccc4Cl)c(C)c3[C@@H]1O)C2 [Glx-344A]
IC50 (Gli1; [5]): 172 nM

Compound: COc1cccc2c1CN(C1CCc3nn(-c4ccccc4Cl)c(C)c3[C@@H]1O)C2 (some centres unmarked) [Glx-344]
IC50 (Gli1; [5]): 385 nM

Compound: COc1cccc2c1CC(N1CCc3nn(-c4ccccc4Cl)c(C)c3C1)C2 (centres unmarked) [Glx-369]
IC50 (Gli1; [5]): 73 nM

Compound: COc1cccc2c1CN(C1CCc3nn(-c4ccccc4Cl)c(C)c3C1=O)C2 (centres unmarked) [Glx-402]
IC50 (Gli1; [5]): 430 nM

Results, then the molecule that gave them:

IC50 (Gli1; [3]): < 17 nM
Compound: Cn1c(-c2ccccc2Cl)nc2c1CN(Cc1cnc3ccccc3n1)CC2 [Compound 11]

IC50 (Gli1; [3]): < 17 nM
Compound: Cn1c(-c2ccccc2Cl)nc2c1CN(Cc1ncnc3ccccc13)CC2 [Compound 13]

IC50 (Gli1; [3]): < 17 nM
Compound: Cn1c(-c2ccccc2Cl)nc2c1CN(Cc1nc3ccccc3s1)CC2 [Compound 14]

IC50 (Gli1; [4]): 7.1 nM | AUCINF-plasma (Pharmacokinetic Study; PO, 10 mg/Kg): 748 ng·h/mL | T½ (Pharmacokinetic Study; PO, 10 mg/Kg): 1.99 h | Brain levels 2 h post PO administration (Pharmacokinetic Study; PO, 10 mg/Kg): 211 ng/g | Brain/plasma ratio (2 h) (Pharmacokinetic Study; PO, 10 mg/Kg): 129% | Cmax (Pharmacokinetic Study; PO, 10 mg/Kg): 698
Compound: COc1cccc2c1CN(C1CCc3nn(-c4ccccc4Cl)c(C)c3C1)C2 (centres unmarked) [Glx-088RS]
